Laboratory results taken from article PMC9769694, “Discovery of Two Inhibitors of the Type IV Pilus Assembly ATPase PilB as Potential Antivirulence Compounds” (Microbiology Spectrum, 2022).

Assays:
Conditions in all cases: data not shown
CtPilB = CtPilB (Chloracidobacterium thermophilum, UniProt G2LDI3); assay: Malachite green ATPase assay, dose response (benchtop); assay type: biochemical
Experimental: The full-length CtPilB and the CtPilBΔN variant (with the first 139 residues at the N terminus truncated) were purified as preciously described ([29]). The HTS was conducted using 384-well microplates (Greiner, cat no. 781101). Each microwell for the screen contained a 15-μL reaction mixture consisting of 75 nM CtPilB, 0.5 mM ATP, 20 μM of a library compound, and 2% DMSO in activity buffer (50 mM N-tris(hydroxymethyl)methyl-3-aminopropanesulfonic acid [TAPS], 50 mM Tris, 75 mM KCl, 50 mM sodium acetate, 5 mM MgCl2, 50 mM ZnCl2 [pH 8.7]) ([29]). Reaction mixtures were incubated at 55°C for 10 min and transferred to ice for 5 min to stop the enzymatic reaction. MG reagent (50 μL) was added to each well for color development. After a 15-minute incubation, 5 μL of 34% (wt/vol) sodium-citrate (MP Chemicals) was added and the plate was mixed by shaking ([28], [29]). Absorbance at 620 nm (A620) was measured using a SpectraMax M5 microplate reader at room temperature. The HTS was performed at the Virginia Tech Center for Drug Discovery (VTCDD) Screening Laboratory.
The effects of inhibitors on the ATPase activity of CtPilB and CtPilBΔN and the binding of MANT-ATP were determined as described previously ([28], [29]). Stock solutions were prepared by dissolving benserazide hydrochloride (Alfa Aesar) or levodopa (Spectrum Chemical Mfg. Corp.) in dimethyl sulfoxide (DMSO; Fisher Biotech). Next, 10× working stocks for given concentrations of an inhibitor were freshly prepared before their use in an experiment. GraphPad Prism v7.04 was used for curve fitting and Student’s t test was used for statistical analysis.

M. xanthus S motility = assay: T4P-mediated social (S) motility, colony expansion on soft agar; assay type: cell-based, Myxococcus xanthus
Source text: Benserazide and levodopa were examined to determine whether they could impact the T4P assembly function of PilB in vivo using M. xanthus as the model bacterium ([28]). […] Three M. xanthus strains were used for these experiments. Strain DK10416 lacks S motility because it is a pilB deletion (ΔpilB) mutant ([40]). The other two strains both assemble T4P and are proficient in S motility ([30]). Strain YZ1674 produces the wild-type (WT) M. xanthus PilB (MxPilB). YZ2232 expresses MC3PilB, a PilB chimera with the N terminus of MxPilB fused to the C-terminal ATPase domain of CtPilB ([30]). The PilB ATPase domains of MxPilB and MC3PilB are highly similar, with 66% shared identity and 77% similarity (Fig. S1).
FIG 5 Benserazide and levodopa inhibit T4P-mediated social (S) motility in Myxococcus xanthus. Expansion rates (cm/day) of the MxPilB (YZ1674) and the MC3PilB (YZ2232) strains on soft agar plates by S motility in the presence of (A and C) benserazide and (B and D) levodopa after 5 days of incubation. Results from three independent experiments are shown, each performed in quintuplicates with data points represented by dots of the same color. Horizontal black lines represent overall averages. Expansion rates were normalized by subtracting that of the ΔpilB strain, which has no S motility (also see Fig. S4). Asterisks (*) indicate that the values at the indicated concentrations are statistically different (P < 0.05) from those of the no-inhibitor control.
M. xanthus was grown and maintained at 32°C in Casitone-yeast extract (CYE) medium ([49]). Motility assays were conducted with strains DK10416 (ΔpilB) ([40]), YZ1674 (ΔpilB att::MxpilB) ([50]), and YZ2232 (ΔpilB att::MC3pilB) ([30], [51]) as previously described ([28]). One modification was that 10% India ink was included in the cell suspension to mark the initial spot on agar plates. All experiments were conducted in quintuplicates and the diameter of the initial spot, as marked by India ink, was subtracted for data analysis.

[1] = test system: A. nosocomialis twitching motility; assay: Twitching motility, crystal violet stained twitching area; assay type: cell-based, Acinetobacter nosocomialis
Source text: The inhibitors may thus interact with conserved features of the PilB ATPase family. A. nosocomialis PilB ([19]), whose N terminus is not similar to the MshEN domain (data not shown), shares ~53% identity and ~74% homology with MxPilB and MC3PilB in the ATPase domain (Fig. S1). We analyzed whether benserazide and levodopa could impact the T4P-powered twitching motility ([19], [44]) of A. nosocomialis (Fig. 7), an opportunistic pathogen in the Acinetobacter calcoaceticus-Acinetobacter baumannii (ACB) complex ([45]). As shown in Fig. 7A and B and Fig. S7, benserazide and levodopa impede the twitching motility of WT A. nosocomialis in a concentration-dependent manner.
FIG 7 Benserazide and levodopa inhibit Acinetobacter nosocomialis twitching motility and biofilm formation. (A and B) Twitching motility is correlated with the twitching area (cm^2) of the A. nosocomialis wild-type (WT) strain in the presence of (A) benserazide or (B) levodopa, with the control (no inhibitor) normalized to 1. Data are from 3 independent experiments, each performed in triplicates and represented by dots of the same color. (C and D) Biofilms formed by A. nosocomialis with (C) benserazide or (D) levodopa were analyzed by a microplate assay with crystal violet (CV) staining. Results from three independent experiments, each performed in quadruplicates and represented by dots of the same color, are shown. Horizontal lines indicate overall averages, and asterisks (*) signify that values at the indicated concentration are statistically different from those of the control (P < 0.05).
The A. nosocomialis wild-type M2 strain and an isogenic pilA deletion (ΔpilA) mutant ([19], [46]) were used in this study. They were grown and maintained using MacConkey medium at 37°C. The twitching motility of the M2 strain of A. nosocomialis was analyzed with 1% crystal violet (CV) for staining, and twitching areas were used as measures of motility as previously described ([46]). These motility assays were conducted in triplicates and the stained area of the ΔpilA mutant was subtracted from that of the WT for data analysis. A. nosocomialis biofilm formation was analyzed using microplates and CV staining as previously described ([53], [54]). The biofilm assays were conducted in quadruplicate in MacConkey medium with tissue culture-treated microtiter plates (Falcon). CV absorbance (Acv) was measured at 590 nm using Infinite M200 PRO in clear polystyrene 96-well microplates (ExtraGene). Absorbance for each well was read 16 times using Multiple Reads with the average as the final Acv value. Readings from control wells without bacteria were subtracted for normalization. Statistical differences were determined using a Student’s t test.

Chain of CtPilB (G2LDI3 entry or part of it): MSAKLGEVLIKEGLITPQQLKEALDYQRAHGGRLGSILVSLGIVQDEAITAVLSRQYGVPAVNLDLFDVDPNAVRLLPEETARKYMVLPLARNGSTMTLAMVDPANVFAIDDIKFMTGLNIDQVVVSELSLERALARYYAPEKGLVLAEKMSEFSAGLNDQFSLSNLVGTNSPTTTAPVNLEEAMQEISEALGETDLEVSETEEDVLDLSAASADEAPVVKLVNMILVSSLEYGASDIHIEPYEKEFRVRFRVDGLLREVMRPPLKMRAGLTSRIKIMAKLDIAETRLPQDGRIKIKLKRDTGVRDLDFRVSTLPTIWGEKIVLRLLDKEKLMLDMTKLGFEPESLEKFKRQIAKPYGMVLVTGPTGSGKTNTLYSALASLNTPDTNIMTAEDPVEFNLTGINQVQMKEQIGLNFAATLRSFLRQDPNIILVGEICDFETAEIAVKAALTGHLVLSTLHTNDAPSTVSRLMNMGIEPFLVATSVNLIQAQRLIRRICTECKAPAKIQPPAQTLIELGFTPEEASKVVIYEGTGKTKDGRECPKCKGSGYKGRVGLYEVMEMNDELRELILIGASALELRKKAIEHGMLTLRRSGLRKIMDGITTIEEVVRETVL

N[C@@H](Cc1ccc(O)cc1)C(=O)O [tyrosine, 4-monohydroxyphenylalanine]
no inhibitory effect: inhibitory effect on CtPilB in vitro (CtPilB) | inhibitory effect on motility of M. xanthus in vivo (M. xanthus S motility) | inhibitory effect on motility of A. nosocomialis in vivo [1]

N[C@@H](Cc1ccccc1)C(=O)O [phenylalanine]
no inhibitory effect: inhibitory effect on CtPilB in vitro (CtPilB) | inhibitory effect on motility of M. xanthus in vivo (M. xanthus S motility) | inhibitory effect on motility of A. nosocomialis in vivo [1]
